# What was measured:
# Assay type in all cases: functional
# [1] = In vitro cytotoxicity against B16 melanoma cells relative to paclitaxel ED50 = 1
# [2] = Ability to induce the formation of microtubules using microtubule assembly assay in vitro relative to paclitaxel ED50 = 1
# [3] = In vitro cytotoxicity against P388 cells relative to paclitaxel ED50 = 1
smiles,measurement,setting,value
CC(=O)O[C@H]1C(=O)[C@@]2(C)[C@H]([C@H](OC(=O)c3ccccc3)[C@]3(O)C[C@H](OC(=O)[C@H](O)[C@@H](NC(=O)c4ccccc4)c4ccccc4)C(C)=C1C3(C)C)[C@]1(OC(C)=O)CO[C@@H]1C[C@@H]2O [PACLITAXEL],Ratio,[1],1
same,Ratio,[2],1
CC(=O)O[C@H]1C(=O)[C@@]2(C)[C@H]([C@H](OC(=O)c3ccccc3)[C@]3(O)C[C@H](OC(=O)[C@H](O)[C@@H](NC(=O)c4cccc(N=[N+]=[N-])c4)c4ccccc4)C(C)=C1C3(C)C)[C@]1(OC(C)=O)CO[C@@H]1C[C@@H]2O,Ratio,[1],2.6
same,Ratio,[2],0.81
CC(=O)O[C@H]1C(=O)[C@@]2(C)[C@H]([C@H](OC(=O)c3ccccc3)[C@]3(O)C[C@H](OC(=O)[C@H](O)[C@@H](NC(=O)c4cc(N=[N+]=[N-])cc([N+](=O)[O-])c4)c4ccccc4)C(C)=C1C3(C)C)[C@]1(OC(C)=O)CO[C@@H]1C[C@@H]2O,Ratio,[1],17.4
same,Ratio,[2],3
CC(=O)O[C@@]12CO[C@@H]1C[C@H](O)[C@@]1(C)C(=O)[C@H](O)C3=C(C)[C@@H](OC(=O)[C@H](O)[C@@H](NC(=O)OC(C)(C)C)c4ccccc4)C[C@@](O)([C@@H](OC(=O)c4ccccc4)[C@H]21)C3(C)C.O.O.O [DOCETAXEL],Ratio,[1],0.41
same,Ratio,[2],0.45
CC(=O)O[C@H]1C(=O)[C@@]2(C)[C@H]([C@H](OC(=O)c3ccccc3)[C@]3(O)C[C@H](OC(=O)[C@H](O)[C@@H](NC(=O)c4ccc(N=[N+]=[N-])cc4)c4ccccc4)C(C)=C1C3(C)C)[C@]1(OC(C)=O)CO[C@@H]1C[C@@H]2O,Ratio,[1],4.6
same,Ratio,[2],2
CC(=O)O[C@H]1C(=O)[C@@]2(C)[C@H]([C@H](OC(=O)c3cccc(N=[N+]=[N-])c3)[C@]3(O)C[C@H](OC(=O)[C@H](O)[C@@H](NC(=O)OC(C)(C)C)c4ccccc4)C(C)=C1C3(C)C)[C@]1(OC(C)=O)CO[C@@H]1C[C@@H]2O,Ratio,[1],0.37
same,Ratio,[2],1.2
CC(=O)O[C@H]1C(=O)[C@@]2(C)[C@H]([C@H](OC(=O)c3cccc(N=[N+]=[N-])c3)[C@]3(O)C[C@H](OC(=O)[C@H](O)[C@@H](NC(=O)c4ccccc4)c4ccccc4)C(C)=C1C3(C)C)[C@]1(OC(C)=O)CO[C@@H]1C[C@@H]2O,Ratio,[1],0.65
same,Ratio,[2],0.4
same,Ratio,[3],0.08

# Reference: ChEMBL document CHEMBL1128856, “Paclitaxel and docetaxel photoaffinity labels” (1995)
